Results: PubChem BioAssay AID1918943 (Molecular Pharmacology Branch, DTP, NCI, 2023)

System: 855422-203-R-J1-PDC complex spheroid viability
Assay: Anticancer human tumor 855422-203-R-J1-PDC patient-derived bladder carcinoma cell line growth inhibition
Conditions: for IC50: curve of first compound; for viability, T/C: stronger effect = lower value
How it was run: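 Multicellular complex spheroids of tumor cells with human endothelial cells (HUVEC) and mesenchymal stem cells; the LSD1 inhibitor iadademstat was combined with standard-of-care or investigational agents. Top concentration at or near clinical Cmax, half-log dilutions; final DMSO ≤0.25%.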

[1] = second compound 0.1 µM, first compound 0.0316 µM
[2] = second compound 0.1 µM, first compound 0.1 µM
[3] = second compound 0.316 µM, first compound 0.0316 µM
[4] = second compound 0.316 µM, first compound 0.1 µM
[5] = second compound 1 µM, first compound 0.0316 µM
[6] = second compound 1 µM, first compound 0.1 µM
[7] = second compound 3.16 µM, first compound 0.0316 µM
[8] = second compound 3.16 µM, first compound 0.1 µM
[9] = second compound 10 µM, first compound 0.0316 µM
[10] = second compound 10 µM, first compound 0.1 µM
[11] = second compound 0.1 µM, first compound 0.000949 µM
[12] = second compound 0.1 µM, first compound 0.003 µM
[13] = second compound 0.1 µM, first compound 0.00949 µM
[14] = second compound 0.1 µM, first compound 0.03 µM
[15] = second compound 0.1 µM, first compound 0.0949 µM
[16] = second compound 0.1 µM, first compound 0.3 µM
[17] = second compound 0.316 µM, first compound 0.000949 µM
[18] = second compound 0.316 µM, first compound 0.003 µM
[19] = second compound 0.316 µM, first compound 0.00949 µM
[20] = second compound 0.316 µM, first compound 0.03 µM
[21] = second compound 0.316 µM, first compound 0.0949 µM
[22] = second compound 0.316 µM, first compound 0.3 µM
[23] = second compound 1 µM, first compound 0.000949 µM
[24] = second compound 1 µM, first compound 0.003 µM
[25] = second compound 1 µM, first compound 0.00949 µM
[26] = second compound 1 µM, first compound 0.03 µM
[27] = second compound 1 µM, first compound 0.0949 µM
[28] = second compound 1 µM, first compound 0.3 µM
[29] = second compound 3.16 µM, first compound 0.000949 µM
[30] = second compound 3.16 µM, first compound 0.003 µM
[31] = second compound 3.16 µM, first compound 0.00949 µM
[32] = second compound 3.16 µM, first compound 0.03 µM
[33] = second compound 3.16 µM, first compound 0.0949 µM
[34] = second compound 3.16 µM, first compound 0.3 µM
[35] = second compound 10 µM, first compound 0.000949 µM
[36] = second compound 10 µM, first compound 0.003 µM
[37] = second compound 10 µM, first compound 0.00949 µM
[38] = second compound 10 µM, first compound 0.03 µM
[39] = second compound 10 µM, first compound 0.0949 µM
[40] = second compound 10 µM, first compound 0.3 µM
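Further: drug exposure lasted 7 days starting on day 3 after seeding.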
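Wherever viability, T/C is given: luminescence viability as percent of DMSO vehicle wells = 100%.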

Structure (SMILES): CC[C@@]1(O)C(=O)OCc2c1cc1n(c2=O)Cc2cc3c(CN(C)C)c(O)ccc3nc2-1 + NC1CCC(NC2CC2c2ccccc2)CC1
- IC50 (second compound 0.1 µM): 7.48 nM
- IC50 (second compound 0.316 µM): 6.91 nM
- IC50 (second compound 1 µM): 7.51 nM
- IC50 (second compound 3.16 µM): 6.75 nM
- IC50 (second compound 10 µM): 6.22 nM
- viability, T/C (second compound 0.1 µM, first compound 0.000316 µM): 89.9%
- viability, T/C (second compound 0.1 µM, first compound 0.001 µM): 93.6%
- viability, T/C (second compound 0.1 µM, first compound 0.00316 µM): 82.5%
- viability, T/C (second compound 0.1 µM, first compound 0.01 µM): 38.8%
- viability, T/C [1]: 27.5%
- viability, T/C [2]: 22.9%
- viability, T/C (second compound 0.316 µM, first compound 0.000316 µM): 90.9%
- viability, T/C (second compound 0.316 µM, first compound 0.001 µM): 83.9%
- viability, T/C (second compound 0.316 µM, first compound 0.00316 µM): 77.7%
- viability, T/C (second compound 0.316 µM, first compound 0.01 µM): 36.8%
- viability, T/C [3]: 24.9%
- viability, T/C [4]: 21.2%
- viability, T/C (second compound 1 µM, first compound 0.000316 µM): 89.1%
- viability, T/C (second compound 1 µM, first compound 0.001 µM): 80%
- viability, T/C (second compound 1 µM, first compound 0.00316 µM): 78.5%
- viability, T/C (second compound 1 µM, first compound 0.01 µM): 39.9%
- viability, T/C [5]: 32.6%
- viability, T/C [6]: 21.4%
- viability, T/C (second compound 3.16 µM, first compound 0.000316 µM): 77.4%
- viability, T/C (second compound 3.16 µM, first compound 0.001 µM): 83.5%
- viability, T/C (second compound 3.16 µM, first compound 0.00316 µM): 74.5%
- viability, T/C (second compound 3.16 µM, first compound 0.01 µM): 37.1%
- viability, T/C [7]: 25.5%
- viability, T/C [8]: 21.1%
- viability, T/C (second compound 10 µM, first compound 0.000316 µM): 79.3%
- viability, T/C (second compound 10 µM, first compound 0.001 µM): 79.2%
- viability, T/C (second compound 10 µM, first compound 0.00316 µM): 66%
- viability, T/C (second compound 10 µM, first compound 0.01 µM): 37.2%
- viability, T/C [9]: 26.9%
- viability, T/C [10]: 15.9%

Structure (SMILES): CCc1c2c(nc3ccc(O)cc13)-c1cc3c(c(=O)n1C2)COC(=O)[C@]3(O)CC + NC1CCC(NC2CC2c2ccccc2)CC1
- IC50 (second compound 0.1 µM): < 0.949 nM
- IC50 (second compound 0.316 µM): < 0.949 nM
- IC50 (second compound 1 µM): < 0.949 nM
- IC50 (second compound 3.16 µM): < 0.949 nM
- IC50 (second compound 10 µM): < 0.949 nM
- viability, T/C [11]: 21.1%
- viability, T/C [12]: 16%
- viability, T/C [13]: 11.9%
- viability, T/C [14]: 9.64%
- viability, T/C [15]: 6.14%
- viability, T/C [16]: 2.74%
- viability, T/C [17]: 22.6%
- viability, T/C [18]: 19.5%
- viability, T/C [19]: 12.3%
- viability, T/C [20]: 9.27%
- viability, T/C [21]: 5.32%
- viability, T/C [22]: 5.13%
- viability, T/C [23]: 23.6%
- viability, T/C [24]: 17.3%
- viability, T/C [25]: 13.2%
- viability, T/C [26]: 8.94%
- viability, T/C [27]: 7.12%
- viability, T/C [28]: 2.09%
- viability, T/C [29]: 22.1%
- viability, T/C [30]: 15.5%
- viability, T/C [31]: 11.4%
- viability, T/C [32]: 9.39%
- viability, T/C [33]: 4.78%
- viability, T/C [34]: 2.98%
- viability, T/C [35]: 20.7%
- viability, T/C [36]: 12.2%
- viability, T/C [37]: 8.28%
- viability, T/C [38]: 8.25%
- viability, T/C [39]: 4.8%
- viability, T/C [40]: 1.43%

Structure (SMILES): Nc1ccccc1NC(=O)c1ccc(CNC(=O)OCc2cccnc2)cc1 + NC1CCC(NC2CC2c2ccccc2)CC1
- IC50 (second compound 0.1 µM): 1340 nM
- IC50 (second compound 0.316 µM): 1430 nM
- IC50 (second compound 1 µM): 1370 nM
- IC50 (second compound 3.16 µM): 1390 nM
- IC50 (second compound 10 µM): 1060 nM
- viability, T/C [13]: 94.5%
- viability, T/C [14]: 85%
- viability, T/C [15]: 93.3%
- viability, T/C [16]: 96.1%
- viability, T/C (second compound 0.1 µM, first compound 0.949 µM): 66.1%
- viability, T/C (second compound 0.1 µM, first compound 3 µM): 12.3%
- viability, T/C [19]: 93.5%
- viability, T/C [20]: 87.5%
- viability, T/C [21]: 91.5%
- viability, T/C [22]: 95%
- viability, T/C (second compound 0.316 µM, first compound 0.949 µM): 73.1%
- viability, T/C (second compound 0.316 µM, first compound 3 µM): 9.06%
- viability, T/C [25]: 93.2%
- viability, T/C [26]: 90.9%
- viability, T/C [27]: 98%
- viability, T/C [28]: 95.9%
- viability, T/C (second compound 1 µM, first compound 0.949 µM): 69.5%
- viability, T/C (second compound 1 µM, first compound 3 µM): 9.07%
- viability, T/C [31]: 84.6%
- viability, T/C [32]: 84.2%
- viability, T/C [33]: 87.8%
- viability, T/C [34]: 85.5%
- viability, T/C (second compound 3.16 µM, first compound 0.949 µM): 72%
- viability, T/C (second compound 3.16 µM, first compound 3 µM): 5.75%
- viability, T/C [37]: 88.7%
- viability, T/C [38]: 81.2%
- viability, T/C [39]: 86.2%
- viability, T/C [40]: 87.3%
- viability, T/C (second compound 10 µM, first compound 0.949 µM): 55.2%
- viability, T/C (second compound 10 µM, first compound 3 µM): 1.52%

Structure (SMILES): Nc1ccn(C2OC(CO)C(O)C2(F)F)c(=O)n1 (stereo not given) + NC1CCC(NC2CC2c2ccccc2)CC1
- IC50 (second compound 0.1 µM): 4.38 nM
- IC50 (second compound 0.316 µM): 5.79 nM
- IC50 (second compound 1 µM): 6.14 nM
- IC50 (second compound 3.16 µM): 6.83 nM
- IC50 (second compound 10 µM): 8.48 nM
- viability, T/C [11]: 90.5%
- viability, T/C [12]: 53.3%
- viability, T/C [13]: 39.5%
- viability, T/C [14]: 34.7%
- viability, T/C [15]: 28.7%
- viability, T/C [16]: 24.4%
- viability, T/C [17]: 86.6%
- viability, T/C [18]: 58.9%
- viability, T/C [19]: 41.3%
- viability, T/C [20]: 34.8%
- viability, T/C [21]: 30%
- viability, T/C [22]: 20.6%
- viability, T/C [23]: 88.5%
- viability, T/C [24]: 57.2%
- viability, T/C [25]: 45.4%
- viability, T/C [26]: 37.9%
- viability, T/C [27]: 32.5%
- viability, T/C [28]: 28.6%
- viability, T/C [29]: 79.2%
- viability, T/C [30]: 63.1%
- viability, T/C [31]: 43.5%
- viability, T/C [32]: 35.1%
- viability, T/C [33]: 26.8%
- viability, T/C [34]: 24.7%
- viability, T/C [35]: 82.1%
- viability, T/C [36]: 55.9%
- viability, T/C [37]: 52%
- viability, T/C [38]: 39.9%
- viability, T/C [39]: 27.6%
- viability, T/C [40]: 22.3%

Structure (SMILES): O=C(c1cc(Cc2n[nH]c(=O)c3ccccc23)ccc1F)N1CCN(C(=O)C2CC2)CC1 + NC1CCC(NC2CC2c2ccccc2)CC1
- IC50 (second compound 0.1 µM): > 10000 nM
- IC50 (second compound 0.316 µM): > 10000 nM
- IC50 (second compound 1 µM): > 10000 nM
- IC50 (second compound 3.16 µM): > 10000 nM
- IC50 (second compound 10 µM): > 10000 nM
- viability, T/C [1]: 89.1%
- viability, T/C [2]: 97.5%
- viability, T/C (second compound 0.1 µM, first compound 0.316 µM): 83.5%
- viability, T/C (second compound 0.1 µM, first compound 1 µM): 83.2%
- viability, T/C (second compound 0.1 µM, first compound 3.16 µM): 84.6%
- viability, T/C (second compound 0.1 µM, first compound 10 µM): 72.3%
- viability, T/C [3]: 98.7%
- viability, T/C [4]: 90.8%
- viability, T/C (second compound 0.316 µM, first compound 0.316 µM): 83.4%
- viability, T/C (second compound 0.316 µM, first compound 1 µM): 84.6%
- viability, T/C (second compound 0.316 µM, first compound 3.16 µM): 82.1%
- viability, T/C (second compound 0.316 µM, first compound 10 µM): 73.8%
- viability, T/C [5]: 94.2%
- viability, T/C [6]: 87.3%
- viability, T/C (second compound 1 µM, first compound 0.316 µM): 87.7%
- viability, T/C (second compound 1 µM, first compound 1 µM): 93%
- viability, T/C (second compound 1 µM, first compound 3.16 µM): 88.1%
- viability, T/C (second compound 1 µM, first compound 10 µM): 79.5%
- viability, T/C [7]: 89.5%
- viability, T/C [8]: 89.8%
- viability, T/C (second compound 3.16 µM, first compound 0.316 µM): 92%
- viability, T/C (second compound 3.16 µM, first compound 1 µM): 87.7%
- viability, T/C (second compound 3.16 µM, first compound 3.16 µM): 79.8%
- viability, T/C (second compound 3.16 µM, first compound 10 µM): 76.1%
- viability, T/C [9]: 83.3%
- viability, T/C [10]: 81.9%
- viability, T/C (second compound 10 µM, first compound 0.316 µM): 86.4%
- viability, T/C (second compound 10 µM, first compound 1 µM): 82.6%
- viability, T/C (second compound 10 µM, first compound 3.16 µM): 80.8%
- viability, T/C (second compound 10 µM, first compound 10 µM): 72.7%
